In patent publication US20210169897A1, “Concentrated Fulvestrant Compositions” (Nevakar Inc., priority 2017, published 2021):
≈ marks a conversion by molar mass, not a printed value. Like-named read-outs stand apart in the source and are kept apart here.

Legend:
[1] = Saturation solubility of fulvestrant in combinations of solvents/detergents (Table 2); format: physicochemical
Procedure: To increase solubility, various other solvents, co-solvents, and surfactants were tested. For example, in some embodiments the monohydroxylated fatty acids (e.g., free ricinoleic acid) in the solvent were substituted with other lipid solvents such as castor oil or oleic acid. […] Here, some formulations including lipid solvents (especially in combination with ethanol and/or benzyl alcohol) can solubilize fulvestrant at a concentration higher than 60 mg/ml. Yet, most of such formulations capable of solubilizing fulvestrant at a higher concentration (e.g., higher than 60 mg/ml) require higher concentration of alcohols (e.g., higher than 30%, etc.), which may cause instability of the formulation (e.g., precipitation of fulvestrant over time, etc.). Moreover, some solvents also required substantial quantities of emulsifier (e.g., Cremophor™ (hydrogenated castor oil reacted with ethylene oxide)), which is not desirable as an ingredient for injection at the tested concentrations. Indeed, it is generally preferred that the fulvestrant compositions and solutions for injection are substantially free (i.e., less than 1% w/v, or less than 0.1% w/v, or less than 0.01% w/v) from surfactants, detergents, and/or emulsifiers.

[2] = background, cited from earlier work

For `C[C@]12CC[C@@H]3c4ccc(O)cc4C[C@@H](CCCCCCCCC[S+]([O-])CCCC(F)(F)C(F)(F)F)[C@H]3[C@@H]1CC[C@@H]2O` (stereo partly drawn) [Fulvestrant], the solubility ([1]; 12.5% ethanol, 75% castor oil, 12.5% Cremophor RH 40 (% w/v), oil or lipid, thermodynamic from solid, No 11 (% w/v): 12.5% Ethanol, 75% Castor Oil, 12.5% Cremophor RH 40, read-out: Solubility) was 128 mg/mL, the solubility ([1]; 50% castor oil, 10% Lipoid E 80, 40% ethanol (% w/v), oil or lipid, thermodynamic from solid, No 12 (% w/v): 50% Castor Oil, 10% Lipoid E 80, 40% Ethanol, read-out: Solubility) was 49.3 mg/mL and the solubility ([1]; 50% castor oil, 25% ethanol, 25% Cremophor 40 (% w/v), oil or lipid, thermodynamic from solid, No 9 (% w/v): 50% Castor Oil, 25% Ethanol, 25% Cremophor 40, read-out: Solubility) was 134 mg/mL. The solubility ([1]; 50% oleic acid, 25% ethanol, 25% Cremophor 40 (% w/v), oil or lipid, thermodynamic from solid, No 8 (% w/v): 50% Oleic Acid, 25% Ethanol, 25% Cremophor 40, read-out: Solubility) was 130 mg/mL, the solubility ([1]; 60% castor oil, 18% BA, 13% ethanol, 9% Lipoid E 80 (% w/v), oil or lipid, thermodynamic from solid, No 14 (% w/v): 60% Castor Oil, 18% BA, 13% Ethanol, 9% Lipoid E 80, read-out: Solubility) was 63 mg/mL and the solubility ([1]; 70% castor oil, 20% oleic acid, 5% BA, 5% ethanol (% w/v), oil or lipid, thermodynamic from solid, No 16 (% w/v): 70% Castor Oil, 20% Oleic Acid, 5% BA, 5% Ethanol, read-out: Solubility) was 49.9 mg/mL. For the same compound, the solubility ([1]; 75% oleic acid, 12.5% ethanol, 12.5% Cremophor RH 40 (% w/v), oil or lipid, thermodynamic from solid, No 10 (% w/v): 75% Oleic Acid, 12.5% Ethanol, 12.5% Cremophor RH 40, read-out: Solubility) was 113 mg/mL, the solubility ([1]; 75% oleic acid, 25% castor oil (% w/v), oil or lipid, thermodynamic from solid, No 5 (% w/v): 75% Oleic Acid, 25% Castor Oil, read-out: Solubility) was 15.5 mg/mL and the solubility ([1]; 85% castor oil, 12% BA, 3% HP-B-CD (% w/v), oil or lipid, thermodynamic from solid, No 15 (% w/v): 85% Castor Oil, 12% BA, 3% HP-B-CD, read-out: Solubility) was 17.2 mg/mL. The solubility ([1]; No 13 (% w/v): 15% Ethanol, 15% Castor Oil, 15% Benzyl Alcohol, 10% Lipoid E 80) was 45.95 mg/mL, the solubility ([1]; oil or lipid, thermodynamic from solid, No 6 (% w/v): 49.5% Oleic Acid, 49.5% Castor Oil, 1% Polysorbate 20, read-out: Solubility) was 22.8 mg/mL and the solubility ([1]; oil or lipid, thermodynamic from solid, No 7 (% w/v): 74.5% Oleic Acid, 24.5% Castor Oil, 1% Polysorbate 20, read-out: Solubility) was 15.7 mg/mL. The solubility ([1]; oil or lipid, thermodynamic from solid, No 17 (% w/v): 10% Ethanol, 65% Castor Oil, 20% Oleic Acid, 5% Benzyl Alcohol, read-out: Solubility) was 68.8 mg/mL, the solubility ([1]; oil or lipid, thermodynamic from solid, No 18 (% w/v): 5% Ethanol, 65% Castor Oil, 20% Oleic Acid, 10% Benzyl Alcohol, read-out: Solubility) was 39.5 mg/mL and the solubility ([1]; oil or lipid, thermodynamic from solid, No 19 (% w/v): 22.5% Castor Oil, 67.5% Oleic Acid, 5% BA, 5% Ethanol, read-out: Solubility) was 47.3 mg/mL. It also gave a solubility ([1]; oil or lipid, thermodynamic from solid, No 20 (% w/v): 45% Oleic Acid, 45% Castor Oil, 5% Ethanol, 5% Benzyl Alcohol, read-out: Solubility) of 43.7 mg/mL, a solubility ([1]; oil or lipid, thermodynamic from solid, No 21 (% w/v): 5% Cremophor EL 35, 5% Ethanol, 5% Benzyl Alcohol, 85% Castor Oil, read-out: Solubility) of 24.4 mg/mL and a solubility ([1]; solvent mixture, oil or lipid, thermodynamic from solid, No 4 (% w/v): 25% Oleic Acid, 75% Castor Oil, read-out: Solubility) of 18.2 mg/mL. For the same compound, the solubility ([1]; solvent mixture, oil or lipid, thermodynamic from solid, No 3 (% w/v): 50% Castor Oil, 50% Oleic Acid, read-out: Solubility) was 20 mg/mL, the solubility ([1]; solvent/detergent mixture, oil or lipid, thermodynamic from solid, No 1 (% w/v): 99% Oleic Acid, 1% Poly. 20, read-out: Solubility) was 4.08 mg/mL and the solubility ([1]; solvent/detergent mixture, oil or lipid, thermodynamic from solid, No 2 (% w/v): 99% Castor Oil, 1% Poly. 20, read-out: Solubility) was 23.2 mg/mL. The solubility ([1]; solvent/detergent mixture, oil or lipid, thermodynamic from solid, No 22 (% w/v): 5% HS 15, 5% Ethanol, 5% Benzyl Alcohol, 85% Castor Oil, read-out: Solubility) was 39.2 mg/mL, the solubility ([1]; solvent/detergent mixture, oil or lipid, thermodynamic from solid, No 23 (% w/v): 5% Cremophor RH 40, 5% Ethanol, 5% Benzyl Alcohol, 85% Castor Oil, read-out: Solubility) was 38 mg/mL and the solubility ([1]; solvent/detergent mixture, oil or lipid, thermodynamic from solid, No 24 (% w/v): 44.5% Oleic Acid, 44.5% Castor Oil, 5% Ethanol, 5% Benzyl Alcohol, 1% Poly. 20, read-out: Solubility) was 51.9 mg/mL. For the same compound, the solubility ([1]; solvent/detergent mixture, oil or lipid, thermodynamic from solid, No 25 (% w/v): 67% Oleic Acid, 22% Castor Oil, 5% Ethanol, 5% Benzyl Alcohol, 1% Poly. 20, read-out: Solubility) was 41 mg/mL, the solubility ([2]; fulvestrant in benzyl alcohol) was over 200 mg/mL and the solubility ([2]; fulvestrant in ethanol) was over 200 mg/mL. For the same compound, the solubility (physchem; Cremophor RH40, aqueous with cosolvent or surfactant or cyclodextrin) was 47.2 mg/mL (≈ 77.9 mM), the solubility (physchem; N,N-dimethylacetamide (DCAM), organic solvent or mixture) was 306 mg/mL (≈ 504 mM) and the solubility (physchem; PEG 300, organic solvent or mixture) was 28.3 mg/mL (≈ 46.6 mM). It also gave a solubility (physchem; PEG 400, organic solvent or mixture) of 24.8 mg/mL (≈ 40.9 mM), a solubility (physchem; benzyl alcohol, organic solvent or mixture) of 269 mg/mL (≈ 443 mM) and a solubility (physchem; benzyl benzoate, organic solvent or mixture) of 3.9 mg/mL (≈ 6.43 mM). For the same compound, the solubility (physchem; butyric acid, organic solvent or mixture) was 318 mg/mL (≈ 524 mM), the solubility (physchem; castor oil, oil or lipid) was 21.2 mg/mL (≈ 34.9 mM) and the solubility (physchem; dimethylsulfoxide (DMSO), organic solvent or mixture) was 320 mg/mL (≈ 527 mM). It also gave a solubility (physchem; ethanol, organic solvent or mixture) of 445 mg/mL (≈ 734 mM), a solubility (physchem; heptanoic acid, organic solvent or mixture) of 154 mg/mL (≈ 255 mM) and a solubility (physchem; hexanoic acid, organic solvent or mixture) of 266 mg/mL (≈ 438 mM). The solubility (physchem; octanoic acid, organic solvent or mixture) was 92.2 mg/mL (≈ 152 mM), the solubility (physchem; oleic acid, oil or lipid) was 4.8 mg/mL (≈ 7.91 mM) and the solubility (physchem; olive oil, oil or lipid) was 0.4 mg/mL (≈ 0.659 mM). It also gave a solubility (physchem; propanoic acid, organic solvent or mixture) of 319 mg/mL (≈ 526 mM), a solubility (physchem; propylene glycol, organic solvent or mixture) of 39.1 mg/mL (≈ 64.4 mM) and a solubility (physchem; ricinoleic acid, oil or lipid) of 26 mg/mL (≈ 42.8 mM).
